Earlier results on 1 compound are cited in patent US20240199754A1 (VANCOUVER BIOTECH LTD., priority 2021, published 2024).

Square brackets hold non-standard residues; d marks the D form. Peptide text beside a SMILES is read from it. dPhe(4-Cl) = N[C@H](Cc1ccc(Cl)cc1)C(=O)O; d2Nal = N[C@H](Cc1ccc2ccccc2c1)C(=O)O; dCit = NC(=O)NCCC[C@@H](N)C(=O)O; d3Pal = N[C@H](Cc1cccnc1)C(=O)O

The conditions of this data set: cited from earlier work.

With `CC(=O)N[C@H](Cc1ccc2ccccc2c1)C(=O)N[C@H](Cc1ccc(Cl)cc1)C(=O)N[C@H](Cc1cccnc1)C(=O)N[C@@H](CO)C(=O)N[C@@H](Cc1ccc(O)cc1)C(=O)N[C@H](CCCNC(N)=O)C(=O)N[C@@H](CC(C)C)C(=O)N[C@@H](CCCNC(=N)N)C(=O)N1CCC[C@H]1C(=O)N[C@H](C)C(N)=O` [Cetrorelix, reference compound] (Ac-[d2Nal][dPhe(4-Cl)][d3Pal]SY[dCit]LRP[dA]-NH2), the circulation half life was 10 to 63 h.
